Patent US20250250608A1, “METHODS AND COMPOSITIONS FOR ASSAYING BETA-HEXOSAMINIDASE ENZYMATIC ACTIVITY VIA MASS SPECTROMETRY” (GelbChem, LLC, priority 2024, published 2025)

Key:
HexA [1] = molecular target: T1, HexA (Homo sapiens, UniProt P06865); assay: Analytical range of duplex assay, HexA activity; format: biochemical; conditions: dried blood spots
T1 construct: using endogenous enzymes from healthy adult dried blood spots; from tissue; host or cells: dried blood spots from healthy adults/individuals (3.2 mm punches)
T1 sequence (P06865 89-529): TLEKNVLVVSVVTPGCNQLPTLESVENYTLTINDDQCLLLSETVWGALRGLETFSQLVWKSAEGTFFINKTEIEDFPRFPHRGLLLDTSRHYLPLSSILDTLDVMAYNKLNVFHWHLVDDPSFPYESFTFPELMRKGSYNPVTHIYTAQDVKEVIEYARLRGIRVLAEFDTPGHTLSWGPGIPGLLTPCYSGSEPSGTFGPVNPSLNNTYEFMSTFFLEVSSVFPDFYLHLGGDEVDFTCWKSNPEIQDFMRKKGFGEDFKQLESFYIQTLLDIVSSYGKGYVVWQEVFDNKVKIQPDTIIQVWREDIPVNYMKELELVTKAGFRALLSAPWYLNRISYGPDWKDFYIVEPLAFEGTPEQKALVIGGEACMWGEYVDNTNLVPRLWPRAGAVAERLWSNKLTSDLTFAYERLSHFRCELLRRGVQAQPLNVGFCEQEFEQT
T1 sequence (P07686 122-556 partner): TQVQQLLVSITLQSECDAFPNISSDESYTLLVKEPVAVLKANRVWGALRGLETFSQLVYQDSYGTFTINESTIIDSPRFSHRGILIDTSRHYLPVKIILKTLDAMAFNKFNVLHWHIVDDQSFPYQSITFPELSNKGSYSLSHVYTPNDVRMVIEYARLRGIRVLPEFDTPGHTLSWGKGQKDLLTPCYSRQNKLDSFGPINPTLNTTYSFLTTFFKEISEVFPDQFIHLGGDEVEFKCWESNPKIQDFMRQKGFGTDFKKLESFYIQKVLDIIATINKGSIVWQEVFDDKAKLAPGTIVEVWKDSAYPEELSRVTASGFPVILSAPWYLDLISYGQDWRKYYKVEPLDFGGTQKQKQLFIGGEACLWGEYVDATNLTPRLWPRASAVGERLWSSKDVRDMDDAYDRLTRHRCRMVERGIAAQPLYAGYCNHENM
Experimental: (§1) 3.2 mm punches were taken from dried blood samples. The punches were added into a well of a multiwell plate and in particular, a 1.0 mL deep-well 96-well plate. Following, 30 μL of the duplex assay cocktail described above was added to each well. The plate was sealed with a silicone sealing mat and shaken at 250 rpm for 4 hours at 37° C. in an orbital shaker incubator. After incubation, the enzymatic reaction was quenched by adding 100 μL of methanol: ethyl acetate (1:1) and mixed by pipetting up and down ˜10 times. Analytes were extracted by adding sodium chloride solution (0.5 M, 200 μL) and ethyl acetate (400 μL) to each well and mixed by pipetting up and down ˜10 times. The plate was centrifuged at 3000×g for 5 min at ambient temperature, then 200 μL of the upper ethyl acetate layer was transferred to a 96-well microplate. […]
(§2) Analytes were detected via a WATERS™ Xevo TQ triple-quadrupole mass spectrometer. […] The following MRM traces were monitored for quantitation: HexA enzymatic reaction product (456.5>356.1), HexA/B enzymatic reaction product (461.5>361.2), and internal standard (465.5>357.1). […]
The analytical range, as calculated by dividing the enzymatic activity in healthy individual samples over the enzymatic activity in a blank, was determined to be 82 for the HexA substrate and 3,400 for the HexA/B substrate.

[2] = Substrate stability over incubation in sodium formate buffer; format: physicochemical; conditions: 24 hour incubation at 37° C. in sodium formate buffer; read-out: recovery of the substrates (stability)
HexA/B = assay: Enzyme kinetics of HexA/B with the HexA/B substrate, endogenous enzymes from healthy adult dried blood spots, LC-MS/MS detection; format: biochemical; conditions: read-out: Michaelis-Menten constant (Km)
Experimental: as §1, with “times.” for “times. The plate was centrifuged at 3000×g for 5 min at ambient temperature, then 200 μL of the upper ethyl acetate layer was transferred to a 96-well microplate.”
as §2
Enzyme kinetics of HexA and HexA/B were measured in relationship to the HexA substrate and HexA/B substrate, respectively, using endogenous enzymes from healthy adult dried blood spots. […]
The reaction rate for each substrate at different substrate concentrations was measured and the relationship found to be hyperbolic.

HexA [3] = molecular target: T1, HexA; assay: Competitive inhibition: HexA activity with the HexA substrate in presence and absence of the HexA/B substrate, dried blood spots from healthy individuals; format: biochemical; conditions: HexA substrate in presence vs absence of HexA/B substrate
Experimental: The HexA/B substrate binds to both HexA and HexB, whereas the HexA substrate binds to only the HexA; thus, the HexA/B substrate may theoretically block the action of HexA on the HexA substrate by competitive binding (i.e. competitive inhibition). An experiment was done to test this theory where HexA enzymatic activity was measured in dried blood spots from healthy individuals using the HexA substrate in the presence and absence of the HexA/B substrate.

| analytical range (enzymatic activity in healthy individual samples over enzymatic activity in a blank) (HexA [1]) | recovery at 24 h [2] [%] | Km (HexA/B) [mM] | competitive inhibition of HexA enzymatic activity on the HexA substrate (HexA [3]) | Structure (SMILES) |
| --- | --- | --- | --- | --- |
| 82 | > 100 | – | – | CC(=O)NC1C(Oc2ccc(NC(=O)CCN(CCCCNC(=O)c3ccccc3)C(=O)OC(C)(C)C)cc2)OC(COS(=O)(=O)O)C(O)C1O (centres unmarked) [HexA substrate] |
| – | > 100 | 3.06 | no competitive inhibition | [2H]c1c([2H])c([2H])c(C(=O)NCCCCN(CCC(=O)Nc2ccc(OC3OC(CO)C(O)C(O)C3NC(C)=O)cc2)C(=O)OC(C)(C)C)c([2H])c1[2H] (centres unmarked) [HexA/B substrate] |
